Test results taken from PubChem BioAssay (NCI).
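A five-concentration, 48-hour dose response in 96-well plates underlies each endpoint, interpolated linearly between surrounding concentrations. TGI denotes the concentration required for complete inhibition of growth.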

Experiments:
Assay in all cases: NCI tumour cell line growth inhibition, 48 h
P388 leukemia = system: P388 leukemia
A549 NSCLC = system: A549 NSCLC
KM20L2 colon = system: KM20L2 colon
NCI-H23 lung = system: NCI-H23 lung
IGROV1 ovarian = system: IGROV1 ovarian
HL-60(TB) leukemia = system: HL-60(TB) leukemia
HOP-18 NSCLC = system: HOP-18 NSCLC
MALME-3M melanoma = system: MALME-3M melanoma
U251 CNS = system: U251 CNS
DMS 114 small cell lung = system: DMS 114 small cell lung
UACC-62 melanoma = system: UACC-62 melanoma
SNB-78 CNS = system: SNB-78 CNS
K-562 leukemia = system: K-562 leukemia
SF-268 CNS = system: SF-268 CNS
A498 renal = system: A498 renal
UACC-257 melanoma = system: UACC-257 melanoma
M19-MEL melanoma = system: M19-MEL melanoma
HOP-92 NSCLC = system: HOP-92 NSCLC
CCRF-CEM leukemia = system: CCRF-CEM leukemia
UO-31 renal = system: UO-31 renal
SK-OV-3 ovarian = system: SK-OV-3 ovarian
SK-MEL-5 melanoma = system: SK-MEL-5 melanoma
MOLT-4 leukemia = system: MOLT-4 leukemia
P388/ADR leukemia = system: P388/ADR leukemia
NCI/ADR-RES ovarian = system: NCI/ADR-RES ovarian
SK-MEL-28 melanoma = system: SK-MEL-28 melanoma
DLD-1 colon = system: DLD-1 colon
CAKI-1 renal = system: CAKI-1 renal
OVCAR-8 ovarian = system: OVCAR-8 ovarian
DMS 273 small cell lung = system: DMS 273 small cell lung
MCF7 breast = system: MCF7 breast
OVCAR-5 ovarian = system: OVCAR-5 ovarian
SNB-19 CNS = system: SNB-19 CNS
HCC-2998 colon = system: HCC-2998 colon
RPMI-8226 leukemia = system: RPMI-8226 leukemia
SN12C renal = system: SN12C renal
HCT-15 colon = system: HCT-15 colon
HOP-62 NSCLC = system: HOP-62 NSCLC
COLO 205 colon = system: COLO 205 colon
OVCAR-4 ovarian = system: OVCAR-4 ovarian
SF-295 CNS = system: SF-295 CNS
KM12 colon = system: KM12 colon
RXF 393 renal = system: RXF 393 renal
LOX IMVI melanoma = system: LOX IMVI melanoma
NCI-H226 lung = system: NCI-H226 lung
HCT-116 colon = system: HCT-116 colon
EKVX NSCLC = system: EKVX NSCLC
NCI-H522 lung = system: NCI-H522 lung
OVCAR-3 ovarian = system: OVCAR-3 ovarian
SN12K1 renal = system: SN12K1 renal
SF-539 CNS = system: SF-539 CNS
XF 498 CNS = system: XF 498 CNS
SK-MEL-2 melanoma = system: SK-MEL-2 melanoma
NCI-H460 lung = system: NCI-H460 lung
HT29 colon = system: HT29 colon
SNB-75 CNS = system: SNB-75 CNS
SW-620 colon = system: SW-620 colon
TK-10 renal = system: TK-10 renal
M14 melanoma = system: M14 melanoma
RXF-631 renal = system: RXF-631 renal
ACHN renal = system: ACHN renal
SR leukemia = system: SR leukemia
786-0 renal = system: 786-0 renal
LXFL 529 NSCLC = system: LXFL 529 NSCLC

Measured: TGI

COc1ccc(C2COc3cc(OC(C)=O)c(OC(C)=O)cc3C2)cc1 (configuration not stated)
52.5 µM: A549 NSCLC
44.9 µM: OVCAR-8 ovarian
36.9 µM: RPMI-8226 leukemia
48.2 µM: SK-MEL-5 melanoma
36.8 µM: OVCAR-4 ovarian
48.3 µM: HCC-2998 colon
33.5 µM: P388 leukemia
54.8 µM: DLD-1 colon
37.8 µM: SF-539 CNS
65.8 µM: KM20L2 colon
41.7 µM: NCI-H460 lung
62.7 µM: MCF7 breast
23.9 µM: XF 498 CNS
46.5 µM: UACC-257 melanoma | SW-620 colon
44.4 µM: COLO 205 colon
20.6 µM: DMS 114 small cell lung
80 µM: K-562 leukemia
38.7 µM: SF-295 CNS
37.7 µM: M19-MEL melanoma
51.1 µM: CAKI-1 renal | EKVX NSCLC
46.9 µM: SK-MEL-28 melanoma
35.7 µM: SN12K1 renal
55.9 µM: IGROV1 ovarian
67.4 µM: HOP-62 NSCLC
33.4 µM: SNB-19 CNS
63.1 µM: NCI-H23 lung
81.4 µM: SNB-78 CNS
25.8 µM: SNB-75 CNS
6.3 µM: NCI-H522 lung
23.6 µM: HOP-92 NSCLC
29.1 µM: MOLT-4 leukemia
52.9 µM: HCT-15 colon | NCI-H226 lung
7.32 µM: HL-60(TB) leukemia
37.2 µM: LOX IMVI melanoma
32.9 µM: SN12C renal
52.7 µM: DMS 273 small cell lung
56.1 µM: HT29 colon
34.1 µM: RXF 393 renal
44.8 µM: MALME-3M melanoma
47.3 µM: HCT-116 colon
8.32 µM: A498 renal
51.7 µM: OVCAR-5 ovarian
19.3 µM: HOP-18 NSCLC
82.3 µM: SK-OV-3 ovarian
17.7 µM: P388/ADR leukemia
16.4 µM: CCRF-CEM leukemia
34 µM: KM12 colon
37 µM: SF-268 CNS
58.7 µM: SK-MEL-2 melanoma
40.6 µM: UO-31 renal
24.3 µM: U251 CNS
101 µM: NCI/ADR-RES ovarian
43.5 µM: UACC-62 melanoma
39.9 µM: OVCAR-3 ovarian

O=c1[nH]c(=O)n(C2OC(CO)C(O)C2O)cc1NN=NCc1ccccc1 (configuration not stated)
> 80.1 µM: HCT-116 colon
> 77.4 µM: DLD-1 colon
99.1 µM: DMS 114 small cell lung
> 96.8 µM: HL-60(TB) leukemia
> 76.2 µM: RPMI-8226 leukemia
> 67.8 µM: SW-620 colon
not listed: P388 leukemia | P388/ADR leukemia | NCI/ADR-RES ovarian | MCF7 breast | SN12K1 renal
> 100 µM: all other assays above

CC(C)c1ccccc1NC(=O)CCc1n[nH]c(=S)o1
> 80.1 µM: NCI-H460 lung
> 56.9 µM: HCT-15 colon
> 72.1 µM: RPMI-8226 leukemia
> 89.2 µM: HL-60(TB) leukemia | DLD-1 colon
> 56 µM: SW-620 colon
58.3 µM: COLO 205 colon
> 90.7 µM: DMS 273 small cell lung
> 73.1 µM: K-562 leukemia
not listed: P388 leukemia | P388/ADR leukemia | NCI/ADR-RES ovarian | MCF7 breast | SN12K1 renal | SK-MEL-2 melanoma
> 100 µM: all other assays above

CCCCC(C(=O)C(=O)NC1C2CC3CC(C2)CC1C3)C(=O)C(C)C (configuration not stated)
not listed: P388 leukemia | P388/ADR leukemia | NCI/ADR-RES ovarian | DLD-1 colon | MCF7 breast | SN12K1 renal
> 100 µM: all other assays above
